Data on two compounds can be found in patent publication US9101556B2, “Therapeutic agent and therapeutic device for alleviating ischemia-reperfusion injury” (priority 2010, dated 2015).

For the assay, the system named is myocardial ischemia-reperfusion injury. As to the kind of experiment: Murine myocardial ischemia-reperfusion injury model (60 min LAD ligation, then reperfusion); infarcted area by Evans blue/TTC staining. Format: in vivo, C57BL/6J male mice. To be noted: inhalation from 5 min before until 30 min after start of reperfusion; measured 24 h after reperfusion; vs control (oxygen only); t-test p<0.01. The text has this: 10-week old C57BL/6J male mice were used for the experiment. […] However, during this period, the animals were allowed to take ad libitum the antibiotic-containing water. […] After intraperitoneal administration of pentobarbital as an anesthetic and tracheal intubation, each animal was connected to an animal ventilator for respiration care. The left thorax was shaven and disinfected to carry out thoracotomy, and the left anterior descending coronary artery was ligated with a silk thread to maintain a state of ischemia for 60 minutes. The silk thread used for ligation was then released to cause reperfusion. Reperfusion was confirmed by the restart of blood flow. After confirming reperfusion, the thorax was closed, and ventilator care was continued until the animal awakened from anesthesia. After awakening from anesthesia, the tube was removed, and the animal received care in indoor air. […] Based on the image which was obtained, each heart section was measured for the area of the LV (left ventricle), the AAR (area at risk=the ischemic area), and the area of Nec (necrosis; the infarcted area) using ImageJ image processing software to calculate the value of AAR/LV (proportion of the ischemic area in the left ventricle) and that of Nec/AAR (proportion of the infarcted area in the ischemic area). […]

Consider `[HH]` [hydrogen], for which the “Nec/AAR (proportion of the infarcted area in the ischemic area) compared with the control group” value is given as “decreased”. Under nitrogen monoxide stands “decreased”.
